Measurements: the supplement of paper PMC10307832

Tests used:
Test in all cases: relative viability (nuclei count vs DMSO), 5 days (fraction); higher = more cells survive
[1] = compound: C1=CC=C(C(=C1)C2=CC=C(C=C2)C3=CSC4=C3C(=C(C(=O)N4)C#N)O)O + Cc1nc(Nc2ncc(C(=O)Nc3c(C)cccc3Cl)s2)cc(N2CCN(CCO)CC2)n1 [Dasatinib] (partner 0.075 µM)
Outline: (§1)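 Relative viability divides the nuclei count in treated wells by that in vehicle wells. Lung cancer cell lines were seeded in 1536-well plates, dosed by pin tool the next day, and fixed and stained after 5 days in one step with final 0.05% Triton X-100, 1% formaldehyde and 1 ug/ml Hoechst. Dosing was a single drug or a fixed anchor-drug dose plus five library-drug doses (not always all listed) in √10 steps, and values are medians of duplicate plates imaged at 4×.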

TGX 221 + Dasatinib = compound: CC1=CN2C(=O)C=C(N=C2C(=C1)C(C)NC3=CC=CC=C3)N4CCOCC4 [TGX 221] + Cc1nc(Nc2ncc(C(=O)Nc3c(C)cccc3Cl)s2)cc(N2CCN(CCO)CC2)n1 [Dasatinib] (partner 0.075 µM)
Outline: as §1

TGX 221 + Pictilisib = compound: CC1=CN2C(=O)C=C(N=C2C(=C1)C(C)NC3=CC=CC=C3)N4CCOCC4 [TGX 221] + CS(=O)(=O)N1CCN(Cc2cc3nc(-c4cccc5[nH]ncc45)nc(N4CCOCC4)c3s2)CC1 [Pictilisib] (partner 1 µM)
Outline: as §1

TGX 221 + AZD7762 = compound: CC1=CN2C(=O)C=C(N=C2C(=C1)C(C)NC3=CC=CC=C3)N4CCOCC4 [TGX 221] + NC(=O)Nc1cc(-c2cccc(F)c2)sc1C(=O)N[C@H]1CCCNC1 [AZD7762] (partner 0.2 µM)
Outline: as §1

Row | Cell Line | relative viability ([1]; first compound 0.08 µM) | relative viability ([1]; first compound 0.253 µM) | relative viability ([1]; first compound 0.8 µM) | relative viability ([1]; first compound 2.53 µM) | relative viability ([1]; first compound 8 µM) | relative viability (TGX 221 + Dasatinib; first compound 0.08 µM) | relative viability (TGX 221 + Dasatinib; first compound 0.253 µM) | relative viability (TGX 221 + Dasatinib; first compound 0.8 µM) | relative viability (TGX 221 + Dasatinib; first compound 2.53 µM) | relative viability (TGX 221 + Dasatinib; first compound 8 µM) | relative viability (TGX 221 + Pictilisib; first compound 0.08 µM) | relative viability (TGX 221 + Pictilisib; first compound 0.253 µM) | relative viability (TGX 221 + Pictilisib; first compound 0.8 µM) | relative viability (TGX 221 + Pictilisib; first compound 2.53 µM) | relative viability (TGX 221 + Pictilisib; first compound 8 µM) | relative viability (TGX 221 + AZD7762; first compound 0.08 µM) | relative viability (TGX 221 + AZD7762; first compound 0.253 µM) | relative viability (TGX 221 + AZD7762; first compound 0.8 µM) | relative viability (TGX 221 + AZD7762; first compound 2.53 µM) | relative viability (TGX 221 + AZD7762; first compound 8 µM)
1 | NCI-H3122 | 1 | 0.715 | 0.91 | 0.829 | 0.721 | 0.931 | 0.83 | 0.865 | 0.794 | 0.872 | 0.619 | 0.581 | 0.635 | 0.574 | 0.581 | 0.974 | 0.925 | 1.01 | 0.994 | 0.981
2 | HCC-15 | 0.522 | 0.627 | 0.601 | 0.673 | 0.61 | 0.595 | 0.575 | 0.657 | 0.564 | 0.608 | 0.806 | 0.706 | 0.784 | 0.71 | 0.782 | 1.1 | 1.02 | 0.673 | 1.21 | 1.13
3 | NCI-H2009 | 0.322 | 0.267 | 0.322 | 0.302 | 0.29 | 0.254 | 0.199 | 0.228 | 0.213 | 0.177 | 0.814 | 0.746 | 0.893 | 0.774 | 0.662 | – | – | – | – | –
4 | NCI-H23 | 0.654 | 0.677 | 0.755 | 1.01 | 0.604 | 0.784 | 0.745 | 0.823 | 0.742 | 0.586 | 0.518 | 0.465 | 0.446 | 0.439 | 0.451 | 0.277 | 0.213 | 0.269 | 0.217 | 0.201
5 | NCI-H1623 | 0.484 | 0.548 | 0.496 | 0.603 | 0.546 | 0.538 | 0.564 | 0.599 | 0.541 | 0.536 | – | – | – | – | – | – | – | – | – | –
6 | NCI-H1734 | 0.396 | 0.474 | 0.452 | 0.489 | 0.455 | 0.472 | 0.393 | 0.433 | 0.444 | 0.391 | 0.452 | 0.41 | 0.435 | 0.377 | 0.456 | 0.526 | 0.464 | 0.499 | 0.609 | 0.496
7 | NCI-H2170 | 0.486 | 0.514 | 0.662 | 0.635 | 0.691 | 0.542 | 0.48 | 0.527 | 0.519 | 0.507 | 0.312 | 0.288 | 0.325 | 0.376 | 0.357 | 0.81 | 0.825 | 0.861 | 0.871 | 0.917
8 | NCI-H2342 | 0.315 | 0.345 | 0.309 | 0.354 | 0.284 | 0.286 | 0.339 | 0.314 | 0.292 | 0.299 | – | – | – | – | – | 0.421 | 0.448 | 0.496 | 0.489 | 0.524
9 | HCC-366 | 0.505 | 0.844 | 0.64 | 0.737 | 0.353 | 0.693 | 0.606 | 0.639 | 0.586 | 0.55 | 0.103 | 0.152 | 0.102 | 0.147 | 0.0862 | 0.325 | 0.202 | 0.242 | 0.0941 | 0.146
10 | HARA | 0.241 | 0.228 | 0.346 | 0.292 | 0.192 | 0.207 | 0.254 | 0.289 | 0.26 | 0.315 | 0.538 | 0.469 | 0.372 | 0.361 | 0.585 | 0.464 | 0.38 | 0.513 | 0.519 | 0.274
11 | NCI-H2087 | 0.67 | 0.878 | 0.969 | 0.925 | 0.703 | 1.02 | 0.75 | 0.646 | 0.9 | 0.993 | 0.989 | 0.966 | 0.883 | 0.811 | 0.87 | 1.04 | 1.23 | 1.37 | 1.2 | 1.21
12 | NCI-H1650 | 0.253 | 0.393 | 0.349 | 0.322 | 0.318 | 0.236 | 0.29 | 0.28 | 0.323 | 0.242 | 0.524 | 0.524 | 0.645 | 0.621 | 0.508 | – | – | – | – | –
13 | NCI-H1563 | 0.469 | 0.553 | 0.529 | 0.439 | 0.477 | 0.427 | 0.457 | 0.434 | 0.46 | 0.428 | 0.651 | 0.622 | 0.573 | 0.634 | 0.638 | – | – | – | – | –
14 | NCI-H1666 | 0.6 | 0.858 | 0.987 | 0.903 | 0.722 | 0.81 | 0.756 | 0.778 | 0.739 | 0.753 | 0.321 | 0.375 | 0.41 | 0.32 | 0.418 | 0.784 | 0.861 | 0.923 | 0.8 | 0.802
15 | LCLC-103H | 0.33 | 0.415 | 0.458 | 0.463 | 0.404 | 0.359 | 0.438 | 0.446 | 0.344 | 0.307 | 0.566 | 0.592 | 0.678 | 0.577 | 0.609 | 0.789 | 0.762 | 0.771 | 0.707 | 0.731
16 | HOP-62 | 0.528 | 0.573 | 0.685 | 0.67 | 0.501 | 0.668 | 0.566 | 0.635 | 0.533 | 0.534 | 0.694 | 0.742 | 0.544 | 0.682 | 0.689 | 0.424 | 0.545 | 0.661 | 0.788 | 0.641
17 | BEN | 0.287 | 0.284 | 0.312 | 0.318 | 0.318 | 0.385 | 0.266 | 0.317 | 0.328 | 0.293 | 0.552 | 0.519 | 0.521 | 0.503 | 0.456 | 0.639 | 0.695 | 0.737 | 0.697 | 0.661
18 | NCI-H1299 | – | – | – | – | – | – | – | – | – | – | 0.74 | 0.728 | 0.787 | 0.654 | 0.617 | – | – | – | – | –
